Source: patent US20060205599A1, “Herbicide combinations comprising specific sulfonamides” (Bayer CropScience GmbH, priority 2003, published 2006)

Columns and labels:
Veronica hederifolia = test: Herbicidal action (field trials), visual scoring of harmful plant; format: in vivo; conditions: field trial, natural outdoor conditions; visual score about 4 weeks after application vs untreated control (100% = all plants died), mean of 2-4 plots; application rate g of active substance/hectare: A 5, B 30, C 250, A + B 5 + 30, A + B + C 5 + 30 + 250
Description: The seeds or rhizome pieces of the harmful plants and the useful plants were laid out or were present in the soil, and they were grown under natural outdoor conditions. Treatment with the active compounds or active compound combinations was carried out […] before and/or after the emergence of the plants, generally at the 2- to 4-leaf stage, in various dosages using a water application rate of 100 to 400 l/ha (converted).
After the application (about 4 weeks after the application), the effectiveness of the active compounds or active compound combinations was scored visually by comparing the treated plots to untreated control plants. During scoring, damage and development of all above-ground parts of plants was assessed. Scoring was carried out using a percentage scale (100% effect=all plants had died; 50% effect=50% of the plants and the green parts of the plants have died; 0% effect=no effect observed=like control plant). In each case, the mean score of 2-4 plots was calculated.
The results are shown in the table below; the effect of the individual application of active compounds (A+B) and C being stated in brackets.

Triticum aestivum = format: in vivo; conditions: field trial, natural outdoor conditions; visual score about 4 weeks after application vs untreated control, mean of 2-4 plots; application rate g of active substance/hectare: A 5, B 30, C 250, A + B 5 + 30, A + B + C 5 + 30 + 250
Description: The seeds or rhizome pieces of the harmful plants and the useful plants were laid out or were present in the soil, and they were grown under natural outdoor conditions.
During scoring, damage and development of all above-ground parts of plants was assessed. […] In each case, the mean score of 2-4 plots was calculated.

SMILES	Veronica hederifolia % effect (Veronica hederifolia)	Triticum aestivum % damage (Triticum aestivum)
COC(=O)c1ccc(CNS(C)(=O)=O)cc1S(=O)(=O)NC(=O)Nc1nc(OC)cc(OC)n1 [mesosulfuron-methyl, methyl 2-[3-(4,6-dimethoxypyrimidin-2-yl)ureidosulfonyl]-4-methanesulfonaminomethyl-benzoate]	7%	2%
CCCOc1nn(C(=O)[N-]S(=O)(=O)c2ccccc2C(=O)OC)c(=O)n1C.[Na+] [propoxycarbazone-sodium]	30%	3%
Cc1cc(Cl)ccc1O[C@H](C)C(=O)O [mecoprop-P, (R)-2-(4-chloro-o-tolyloxy)propionic acid]	35%	0%
